Non-standard residues stand in square brackets, D forms with d. Residues, ends and D or L forms follow the SMILES beside them. No end group written: not given here. 1Nal = N[C@@H](Cc1cccc2ccccc12)C(=O)O; Aib = CC(C)(N)C(=O)O
Legend:
[1] = Circular dichroism helicity determination; assay type: physicochemical; settings: percent helicity; for He (%) TFE: 5 μM peptide, 90% vol TFE; for He (%) TFE / He (%) SUVs: 37° C.; for He (%) free: unbound peptide 5 μM in 5 mM phosphate buffer, pH 7.4, 37° C.; for He (%) SUVs: peptide-SUV complexes (20:1 EPC:Chol., Ri=30 and Ri=50); for He (%) mics: peptide-micelle complexes, Ri=100, 37° C.
Procedure: Far UV circular dichroism spectra were recorded between 190 and 260 nm (in 0.5 nm or 0.2 nm increments) with a AVIV62DS spectrometer (AVIV Associates, Lakewood, N.J., USA) equipped with a thermoelectric cell holder and sample changer. The instrument was calibrated with (+)-10-[…]. Between one and three scans were collected for each sample, using 10 cm, 5 cm, 1 cm and 0.1 cm path length quartz Suprasil cells, respectively, for peptide concentrations of 10^−7 M to 10^−4 M. The bandwidth was fixed at 1.5 nm and the scan speed to 1s per wavelength step. The reported data are the mean of at least 2 or 3 independent measurements.
After background substraction, spectra were converted to molar ellipticity (θ) per residue in deg. […] dmol^−1. The peptide concentration was determined by amino acid analysis and also by absorption spectrometry on a Perkin Elmer Lambda 17 UV/Visible spectrophotometer when the peptide contained a chromophore (tryptophane, dansyl, naphtylalanine).
CD spectra were obtained with free, unbound peptide (5 μM in 5 mM phosphate buffer, pH 7.4); with peptide-SUV complexes (20:1 EPC:Chol., Ri=30 and Ri=50); with peptide-micelle complexes (1-myristoyl-2-hydroxy-sn-glycero-3-phosphatidyl choline, Ri=100); and with free, unbound peptide in the presence of 2,2,2-trifluoroethanol (TFE) (5 μM peptide, 90% vol TFE).
The SUVs were obtained by dispersing the lipids (10 mM, 20:1 EPC:Chol., Avanti Polar Lipids, AL) in phosphate buffer (5 mM, pH 7.4) with bubbling N2 for 5 min., followed by sonication (1.5 hr.) in a bath sonicator. The homogeneity of the preparation was checked by FPLC.
The micelles were obtained by dispersing the lipid (6 mM 1-myristoyl-2-hydroxy-sn-glycero-3-phosphatidyl choline, Avanti Polar Lipids, AL) in phosphate buffer (5 mM, pH 7.4) with bubbling N2 for 5 min., followed by vortexing.
To obtain the peptide-SUV complexes, SUVs were added to the peptide (5 μM in 5 mM phosphate buffer, pH 7.4) at a phospholipid-peptide molar ratio (Ri) of 30 or 50.
To obtain the peptide-micelle complexes, micelles were added to the peptide (5 μM in 5 mM phosphate buffer, pH 7.4) at a Ri of 100.
All spectra were recorded at 37° C.
The degree of helicity of the peptides in the various conditions was determined from the mean residue ellipticity at 222 nm (Chen et al., 1974, Biochemistry 13:3350-3359) or by comparing the CD spectra obtained to reference spectra available on databases (16 helical reference spectra from Provencher & Glockner, 1981, Biochemistry 20:33-37; denatured protein reference spectra from Venyaminov et al., 1993, Anal. Biochem. 214:17-24) using the CONTIN curve-fitting algorithm version 2DP, CD-1 pack (August 1982) (Provencher, 1982, Comput. Phys. Commun. 27:213-227, 229-242). Acceptable fit was determined using the statistical analysis methodology provided by the CONTIN algorithm. The error of all methods was ±5% helicity.

[2] = target: T1, LCAT (purified from human plasma) (Homo sapiens, UniProt P04180); experiment: LCAT activation assay; assay type: biochemical; settings: LCAT activation as compared with native human ApoA-I (= 100%), equivalent masses
T1 construct: from tissue; host or cells: human plasma
T1 sequence (P04180 25-440): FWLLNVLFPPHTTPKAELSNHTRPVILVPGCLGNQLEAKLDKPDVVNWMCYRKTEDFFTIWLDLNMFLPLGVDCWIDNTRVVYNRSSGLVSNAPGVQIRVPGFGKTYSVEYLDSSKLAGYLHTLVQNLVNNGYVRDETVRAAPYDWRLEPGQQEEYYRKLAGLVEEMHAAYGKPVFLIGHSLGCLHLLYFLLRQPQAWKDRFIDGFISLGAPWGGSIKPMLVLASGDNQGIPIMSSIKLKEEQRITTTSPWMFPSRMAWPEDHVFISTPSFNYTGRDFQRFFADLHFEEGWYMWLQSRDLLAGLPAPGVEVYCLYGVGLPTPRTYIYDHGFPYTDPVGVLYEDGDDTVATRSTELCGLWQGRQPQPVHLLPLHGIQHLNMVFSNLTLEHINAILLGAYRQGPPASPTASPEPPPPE
Summary of the method: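 Activity was expressed as percentage conversion of radiolabelled cholesterol to cholesteryl ester, normalised to native ApoA-I as 100%. LCAT purified from human plasma was added to peptide-preincubated EPC or POPC/cholesterol (20:1) small unilamellar vesicles at pH 7.4. Specific activity is the peptide concentration reaching the conversion plateau at a fixed timepoint.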

He (%) TFE [1] | He (%) free [1] | He (%) SUVs [1] | He (%) mics [1] | ACTIVITY (%) LCAT [2] | Molecule
62% | 58% | 68% | 67% | 32% | CC(C)C[C@H](NC(=O)[C@H](C)NC(=O)[C@H](CCC(=O)O)NC(=O)[C@H](CC(C)C)NC(=O)[C@H](CC(C)C)NC(=O)[C@H](CCC(=O)O)NC(=O)[C@H](CC(N)=O)NC(=O)[C@H](CC(C)C)NC(=O)[C@H](CC(C)C)NC(=O)[C@H](CCC(=O)O)NC(=O)[C@H](CCCNC(=N)N)NC(=O)[C@H](Cc1ccccc1)NC(=O)[C@H](Cc1cccc2ccccc12)NC(=O)[C@H](CC(=O)O)NC(=O)[C@H](CC(C)C)NC(=O)[C@@H](NC(=O)[C@@H]1CCCN1)C(C)C)C(=O)N[C@@H](CCCCN)C(=O)N[C@@H](CCC(N)=O)C(=O)N[C@@H](CCCCN)C(=O)N[C@@H](CC(C)C)C(=O)N[C@@H](CCCCN)C(=O)O [compound 34, PVLDZFRELLNELLEALKQKLK] (H-PVLD[1Nal]FRELLNELLEALKQKLK-OH)
57% | 57% | 52% | 65% | 22% | PVLDLFRNLLEKLLEALEQKLK [compound 49]
100% | 100% |  | 100% | 7% | CC(C)C[C@@H](NC(=O)[C@@H](C)NC(=O)[C@@H](CCC(=O)O)NC(=O)[C@@H](CC(C)C)NC(=O)[C@@H](CC(C)C)NC(=O)[C@@H](CCC(=O)O)NC(=O)[C@@H](CCC(N)=O)NC(=O)[C@@H](CC(C)C)NC(=O)[C@@H](CC(C)C)NC(=O)[C@@H](CCC(=O)O)NC(=O)[C@@H](CCCCN)NC(=O)[C@@H](CC(C)C)NC(=O)[C@@H](CC(C)C)NC(=O)[C@@H](CCC(=O)O)NC(=O)[C@@H](CC(C)C)NC(=O)[C@@H](CC(C)C)NC(=O)[C@H]1CCCN1)C(=O)N[C@H](CCCCN)C(=O)N[C@H](CCC(N)=O)C(=O)N[C@H](CCCCN)C(=O)N[C@H](CC(C)C)C(=O)N[C@H](CCCCN)C(=O)O [compound 87, pllellkellqellealkqklk] (H-[dP][dL][dL][dE][dL][dL][dK][dE][dL][dL][dQ][dE][dL][dL][dE][dA][dL][dK][dQ][dK][dL][dK]-OH)
 | 30% | 45% | 66% | 11% | LDDLLQKWAEAFNQLLKK [peptide 237, reference compound]
58% | 19% | 23% | 45% | 0% | PVLDEFREKLNERLEALKQKLK [peptide 109, reference compound]
95% | 95% |  | 100% | 31% | PLLELLKELLQELLEALKQKLK [compound 36]
 | 10% | 50% | 64% | 5% | DWFKAFYDKVAEKFKEAF [peptide 243, reference compound]
70% | 52% | 76% | 78% | 30% | PVLDLFRELLELLKQKLK [compound 217]
65% | 29% | 32% | 28% | 1% | PAADAFREAANEAAEAAKQKAK [compound 105]
66% | 41% |  | 88% | 9% | CC(C)C[C@H](NC(=O)[C@H](C)NC(=O)[C@H](CCC(=O)O)NC(=O)[C@H](CC(C)C)NC(=O)C(C)(C)NC(=O)[C@H](CCC(=O)O)NC(=O)[C@H](Cc1ccccc1)NC(=O)[C@H](CC(C)C)NC(=O)[C@H](CC(C)C)NC(=O)[C@H](CCC(=O)O)NC(=O)[C@H](CCCNC(=N)N)NC(=O)[C@H](Cc1ccccc1)NC(=O)[C@H](CCC(=O)O)NC(=O)[C@H](CC(=O)O)NC(=O)[C@H](CC(C)C)NC(=O)[C@@H](NC(=O)[C@@H]1CCCN1)C(C)C)C(=O)N[C@@H](CCCCN)C(=O)N[C@@H](CCC(N)=O)C(=O)N[C@@H](CCCCN)C(=O)N[C@@H](CC(C)C)C(=O)N[C@@H](CCCCN)C(=O)O [compound 76, PVLDEFRELLFEXLEALKQKLK] (H-PVLDEFRELLFE[Aib]LEALKQKLK-OH)
86% | 24% | 25% | 84% | 24% | CC(C)C[C@H](NC(=O)[C@H](C)NC(=O)[C@H](CCC(=O)O)NC(=O)[C@H](CC(C)C)NC(=O)C(C)(C)NC(=O)[C@H](CCC(=O)O)NC(=O)[C@H](CC(N)=O)NC(=O)[C@H](CC(C)C)NC(=O)[C@H](CCCCN)NC(=O)[C@H](CCC(=O)O)NC(=O)[C@H](CCCNC(=N)N)NC(=O)[C@H](Cc1ccccc1)NC(=O)[C@H](CCC(=O)O)NC(=O)[C@H](CC(=O)O)NC(=O)[C@H](CC(C)C)NC(=O)[C@@H](NC(=O)[C@@H]1CCCN1)C(C)C)C(=O)N[C@@H](CCCCN)C(=O)N[C@@H](CCC(N)=O)C(=O)N[C@@H](CCCCN)C(=O)N[C@@H](CC(C)C)C(=O)N[C@@H](CCCCN)C(=O)O [compound 45, PVLDEFREKLNEXLEALKQKLK] (H-PVLDEFREKLNE[Aib]LEALKQKLK-OH)
98% | 83% |  | 92% | 2% | CC(C)C[C@@H](NC(=O)[C@@H](C)NC(=O)[C@@H](CCC(=O)O)NC(=O)[C@@H](CC(C)C)NC(=O)[C@@H](CC(C)C)NC(=O)[C@@H](CCC(=O)O)NC(=O)[C@@H](CC(N)=O)NC(=O)[C@@H](CC(C)C)NC(=O)[C@@H](CC(C)C)NC(=O)[C@@H](CCC(=O)O)NC(=O)[C@@H](CCCNC(=N)N)NC(=O)[C@@H](Cc1ccccc1)NC(=O)[C@@H](CC(C)C)NC(=O)[C@@H](CC(=O)O)NC(=O)[C@@H](CC(C)C)NC(=O)[C@H](NC(=O)[C@H]1CCCN1)C(C)C)C(=O)N[C@H](CCCCN)C(=O)N[C@H](CCC(N)=O)C(=O)N[C@H](CCCCN)C(=O)N[C@H](CC(C)C)C(=O)N[C@H](CCCCN)C(=O)O [compound 100, pvldlfrellnellealkqklk]
61% | 65% | 75% | 73% | 28% | PVLELFENLLERLLDWLQKKLK [compound 160]
 | 6% |  | 22% | 0% | PVLDEFREKLNEPLEALKQKLK [compound 113]

Molecule | He (%) TFE [1] | He (%) free [1] | He (%) SUVs [1] | He (%) mics [1] | ACTIVITY (%) LCAT [2]
PVLDWFRELLNELLEALKQKLK [compound 35] |  | 49% | 61% | 59% | 31%
Ac-DWLKAFYDKVAEKLKEAF-NH2 [compound 240, reference compound] | 57% | 16% | 59% | 68% | 10%

From patent publication US7273848B2, “Apolipoprotein A-I agonists and their use to treat dyslipidemic disorders” (priority 1997, dated 2007)
